Results from US9242948B2, “Diepoxy compound, process for producing same, and composition containing the diepoxy compound” (Sumitomo Chemical Company, Limited, priority 2009, dated 2016).

Assay: Measurement of solubility in methyl isobutyl ketone
Type: physicochemical
Conditions: for Solubility: compound (g)×100/[compound (g)+methyl isobutyl ketone (g)]; for Solubility relative to that of the compound represented by the formula (A): from Table 1
Description: <Measurement of Solubility>
by the formula (1-1) which was obtained in Example 2, the compound represented by the formula (1-2) which was obtained in Example 6, and the compound represented by the following formula (A)
[drawing 31] (compound (g)×100/[compound (g)+methyl isobutyl ketone (g)], % by weight) were measured.

Solubility (40° C.) [% by weight]	Solubility (65° C.) [% by weight]	Solubility relative to that of the compound represented by the formula (A)	SMILES
1.10	2.00	–	Cc1cc(OC(=O)c2ccc(OCC3CO3)cc2)ccc1OC(=O)c1ccc(OCC2CO2)cc1 (centres unmarked) [formula (A), reference compound]
2.01	4.70	more than twice as big	Cc1cc(C(=O)OC2CCC(c3ccc(OCC4CO4)cc3)CC2)ccc1OCC1CO1 (centres unmarked) [formula (1-2), 4-{4-(2,3-epoxypropoxy)phenyl}cyclohexyl 4-(2,3-epoxypropoxy)-3-methylbenzoate]
2.36	4.16	more than twice as big	O=C(OC1CCC(c2ccc(OCC3CO3)cc2)CC1)c1ccc(OCC2CO2)cc1 (centres unmarked) [formula (1-1), 4-{4-(2,3-epoxypropoxy)phenyl}cyclohexyl 4-(2,3-epoxypropoxy)benzoate]
